Test results: patent US20260250325A1, “Antiviral Polypeptide Membrane Fusion Inhibitor, and Preparation Method and Application Thereof” (priority 2025, published 2026)
Where a SMILES comes first, the peptide text is derived from it. The star is where a group is joined. X1 = CC(C)CCCC(C)C1CCC2C3CC=C4CC(OC(=O)CCC(=O)*)CCC4(C)C3CCC12C

How the values were obtained:
[1] = Cytotoxicity test in HEp-2 cells (CCK8 cell viability); format: cell-based; details: human; HEp-2 cells, CCK8, 1 day; read-out: CC50
In short: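 HEp-2 cells seeded at 30,000/well, cultured overnight at 37° C./5% CO2, then exposed to diluted compound for 1 day in 0.5% DMSO. Viability read by CCK8, normalised to untreated-cell and medium-only controls; CC50 from four-parameter variable-slope fit.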

RSV A long virus strain = format: cell-based; details: RSV A long virus strain, HEp-2 cells, plaque reduction, 1 day; read-out: IC50
In short: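 HEp-2 cells (30000/well) infected with 100 PFU virus premixed 1 h with compound (8 concentrations, duplicate); after 2 h adsorption, cultured 1 day at 37 °C under 0.8% CMC overlay with compound. Plaques immunostained (RSV antibody, TrueBlue) and counted; IC50 and CC50 by non-linear fitting of % inhibition versus virus and cell controls.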

SMILES | CC50 at 1 day [1] [µM] | IC50 (RSV A long virus strain) [µM]
CC[C@H](C)[C@H](NC(C)=O)C(=O)N[C@@H](CC(C)C)C(=O)N[C@@H](CCC(=O)O)C(=O)N[C@@H](CC(C)C)C(=O)N[C@H](C(=O)N[C@@H](CC(N)=O)C(=O)N[C@@H](CCCCN)C(=O)N[C@@H](CCCCN)C(=O)N[C@H](C(=O)N[C@@H](CCC(=O)O)C(=O)N[C@@H](CCC(N)=O)C(=O)N[C@@H](CO)C(=O)N[C@@H](CC(C)C)C(=O)N[C@@H](CCCCN)C(=O)N[C@@H](Cc1ccccc1)C(=O)N[C@H](C(=O)N[C@@H](CCC(=O)O)C(=O)N[C@@H](CCCCN)C(=O)N[C@@H](CO)C(=O)N[C@@H](CC(=O)O)C(=O)N[C@@H](CCCCN)C(=O)N[C@@H](CC(C)C)C(=O)N[C@@H](CC(C)C)C(=O)N[C@@H](CCC(=O)O)C(=O)N[C@@H](CC(N)=O)C(=O)N[C@@H](CCC(=O)O)C(=O)N[C@@H](C)C(=O)N[C@@H](C)C(=O)N[C@@H](C)C(=O)N[C@@H](CCCCN)C(=O)N[C@@H](CCCCNC(=O)CCC(=O)OC1CCC2(C)C(=CCC3C2CCC2(C)C(C(C)CCCC(C)C)CCC32)C1)C(N)=O)[C@@H](C)CC)[C@@H](C)CC)C(C)C (stereo partly shown) [Compound 32] (Ac-ILELVNKKIEQSLKFIEKSDKLLENEAAAKK(X1)-NH2) | > 8 | 0.296
CC[C@H](C)[C@H](NC(=O)[C@H](CCCCN)NC(=O)[C@H](CCCCN)NC(=O)[C@H](CC(N)=O)NC(=O)[C@@H](NC(=O)[C@H](CCC(N)=O)NC(=O)[C@H](CCC(=O)O)NC(=O)[C@H](CC(C)C)NC(=O)[C@H](CO)NC(C)=O)C(C)C)C(=O)N[C@@H](CC(N)=O)C(=O)N[C@@H](CCC(N)=O)C(=O)N[C@@H](CO)C(=O)N[C@@H](CC(C)C)C(=O)N[C@@H](CCCCN)C(=O)N[C@H](C(=O)N[C@@H](CC(N)=O)C(=O)N[C@@H](CCCCN)C(=O)N[C@@H](CCCCN)C(=O)N[C@@H](CO)C(=O)N[C@@H](CC(=O)O)C(=O)N[C@@H](CCCCN)C(=O)N[C@@H](CC(C)C)C(=O)N[C@@H](CC(C)C)C(=O)N[C@@H](CCC(=O)O)C(=O)N[C@@H](CC(N)=O)C(=O)N[C@@H](CCC(=O)O)C(=O)N[C@@H](C)C(=O)N[C@@H](C)C(=O)N[C@@H](C)C(=O)N[C@@H](CCCCN)C(=O)N[C@@H](CCCCNC(=O)CCC(=O)OC1CCC2(C)C(=CCC3C2CCC2(C)C(C(C)CCCC(C)C)CCC32)C1)C(N)=O)C(C)C (stereo partly shown) [Compound 33] (Ac-SLEQVNKKINQSLKVNKKSDKLLENEAAAKK(X1)-NH2) | > 8 | 5.04
CC[C@H](C)[C@H](NC(=O)[C@H](CCC(=O)O)NC(=O)[C@H](CCC(=O)O)NC(=O)[C@H](CC(C)C)NC(=O)[C@H](CO)NC(=O)[C@H](CCC(N)=O)NC(=O)[C@H](CC(N)=O)NC(=O)[C@@H](NC(=O)[C@H](CCCCN)NC(=O)[C@H](CC(C)C)NC(=O)[C@H](CO)NC(=O)[C@H](CCC(N)=O)NC(=O)[C@H](CCC(=O)O)NC(=O)[C@@H](NC(=O)[C@H](CCCCN)NC(=O)[C@H](CCCCN)NC(=O)[C@H](CC(N)=O)NC(=O)[C@@H](NC(=O)[C@H](CCC(=O)O)NC(=O)[C@H](CCC(=O)O)NC(=O)[C@H](CC(=O)O)NC(=O)[C@H](Cc1ccccc1)NC(C)=O)C(C)C)[C@@H](C)CC)[C@@H](C)CC)C(=O)N[C@@H](CCCNC(=N)N)C(=O)N[C@@H](CCCCN)C(=O)N[C@@H](CO)C(=O)N[C@@H](CCC(=O)O)C(=O)N[C@@H](C)C(=O)N[C@@H](C)C(=O)N[C@@H](C)C(=O)N[C@@H](CCCCN)C(=O)N[C@@H](CCCCNC(=O)CCC(=O)OC1CCC2(C)C(=CCC3C2CCC2(C)C(C(C)CCCC(C)C)CCC32)C1)C(N)=O (stereo partly shown) [Compound 34] (Ac-FDEEVNKKIEQSLKINQSLEEIRKSEAAAKK(X1)-NH2) | 1.5 | > 2
CC[C@H](C)[C@H](NC(=O)[C@H](CO)NC(C)=O)C(=O)N[C@@H](CO)C(=O)N[C@@H](CCC(N)=O)C(=O)N[C@H](C(=O)N[C@@H](CC(N)=O)C(=O)N[C@@H](CCC(=O)O)C(=O)N[C@@H](CCCCN)C(=O)N[C@H](C(=O)N[C@@H](CC(N)=O)C(=O)N[C@@H](CCC(=O)O)C(=O)N[C@H](C(=O)N[C@@H](CCC(N)=O)C(=O)N[C@@H](CO)C(=O)N[C@@H](CC(C)C)C(=O)N[C@@H](CCC(=O)O)C(=O)N[C@@H](CCC(=O)O)C(=O)N[C@@H](CCCCN)C(=O)N[C@@H](CO)C(=O)N[C@@H](CC(=O)O)C(=O)N[C@@H](CCCCN)C(=O)N[C@@H](CC(C)C)C(=O)N[C@@H](CC(C)C)C(=O)N[C@@H](CCCCN)C(=O)N[C@@H](CO)C(=O)N[C@@H](CCC(=O)O)C(=O)N[C@@H](C)C(=O)N[C@@H](C)C(=O)N[C@@H](C)C(=O)N[C@@H](CCCCN)C(=O)N[C@@H](CCCCNC(=O)CCC(=O)OC1CCC2(C)C(=CCC3C2CCC2(C)C(C(C)CCCC(C)C)CCC32)C1)C(N)=O)[C@@H](C)CC)[C@@H](C)CC)C(C)C (stereo partly shown) [Compound 35] (Ac-SISQVNEKINEIQSLEEKSDKLLKSEAAAKK(X1)-NH2) | 5.1 | 5.53
CC[C@H](C)[C@H](NC(=O)[C@H](CCCCN)NC(=O)[C@H](CC(=O)O)NC(=O)[C@H](CO)NC(=O)[C@H](CCC(N)=O)NC(=O)[C@H](CCCCN)NC(=O)[C@H](CCCCN)NC(=O)[C@H](CC(C)C)NC(=O)[C@H](CO)NC(=O)[C@H](CCC(N)=O)NC(=O)[C@H](CCCCN)NC(=O)[C@H](CCC(=O)O)NC(=O)[C@H](CCC(=O)O)NC(=O)[C@H](CCC(=O)O)NC(=O)[C@@H](NC(=O)[C@H](CCCCN)NC(=O)[C@H](CCCCN)NC(=O)[C@H](CC(N)=O)NC(=O)[C@@H](NC(C)=O)C(C)C)[C@@H](C)CC)C(=O)N[C@@H](CCC(=O)O)C(=O)N[C@@H](CCC(=O)O)C(=O)N[C@@H](CO)C(=O)N[C@@H](CC(=O)O)C(=O)N[C@@H](CCC(=O)O)C(=O)N[C@@H](CC(N)=O)C(=O)N[C@@H](CCC(=O)O)C(=O)N[C@@H](C)C(=O)N[C@@H](C)C(=O)N[C@@H](C)C(=O)N[C@@H](CCCCN)C(=O)N[C@@H](CCCCNC(=O)CCC(=O)OC1CCC2(C)C(=CCC3C2CCC2(C)C(C(C)CCCC(C)C)CCC32)C1)C(N)=O (stereo partly shown) [Compound 36] (Ac-VNKKIEEEKQSLKKQSDKIEESDENEAAAKK(X1)-NH2) | > 8 | 6.82
CC[C@H](C)[C@H](NC(=O)[C@H](CCCCN)NC(=O)[C@H](CCCCN)NC(=O)[C@H](CC(N)=O)NC(=O)[C@@H](NC(=O)[C@H](CC(C)C)NC(=O)[C@H](CCC(=O)O)NC(=O)[C@H](CC(=O)O)NC(=O)[C@H](Cc1ccccc1)NC(C)=O)C(C)C)C(=O)N[C@@H](CCC(=O)O)C(=O)N[C@@H](CCCCN)C(=O)N[C@H](C(=O)N[C@@H](CCC(=O)O)C(=O)N[C@@H](CCC(=O)O)C(=O)N[C@H](C(=O)N[C@@H](CC(N)=O)C(=O)N[C@@H](CCCCN)C(=O)N[C@@H](CCCCN)C(=O)N[C@@H](CO)C(=O)N[C@@H](CC(C)C)C(=O)N[C@@H](CCCCN)C(=O)N[C@@H](CC(C)C)C(=O)N[C@@H](CC(C)C)C(=O)N[C@@H](CCC(=O)O)C(=O)N[C@@H](CO)C(=O)N[C@@H](CCC(=O)O)C(=O)N[C@@H](C)C(=O)N[C@@H](C)C(=O)N[C@@H](C)C(=O)N[C@@H](CCCCN)C(=O)N[C@@H](CCCCNC(=O)CCC(=O)OC1CCC2(C)C(=CCC3C2CCC2(C)C(C(C)CCCC(C)C)CCC32)C1)C(N)=O)C(C)C)[C@@H](C)CC (stereo partly shown) [Compound 37] (Ac-FDELVNKKIEKIEEVNKKSLKLLESEAAAKK(X1)-NH2) | 4 | 5.23
CC[C@H](C)[C@H](NC(=O)[C@H](CO)NC(=O)[C@H](C)NC(=O)[C@H](CC(=O)O)NC(=O)[C@H](Cc1ccccc1)NC(=O)[C@H](CCC(=O)O)NC(=O)[C@H](CC(=O)O)NC(=O)[C@H](Cc1c[nH]c2ccccc12)NC(C)=O)C(=O)N[C@@H](CO)C(=O)N[C@@H](CCC(N)=O)C(=O)N[C@@H](CC(N)=O)C(=O)N[C@@H](CCC(=O)O)C(=O)N[C@@H](CCCCN)C(=O)N[C@H](C(=O)N[C@@H](CC(N)=O)C(=O)N[C@@H](CCC(N)=O)C(=O)N[C@@H](CO)C(=O)N[C@@H](CC(C)C)C(=O)N[C@@H](CCC(=O)O)C(=O)N[C@@H](CCC(=O)O)C(=O)N[C@H](C(=O)N[C@@H](CCCNC(=N)N)C(=O)N[C@@H](CCCCN)C(=O)N[C@@H](CO)C(=O)N[C@@H](CC(=O)O)C(=O)N[C@@H](CCC(=O)O)C(=O)N[C@@H](CC(C)C)C(=O)N[C@@H](CC(C)C)C(=O)N[C@@H](Cc1c[nH]cn1)C(=O)N[C@@H](CC(N)=O)C(=O)N[C@@H](CC(N)=O)C(=O)N[C@@H](C)C(=O)N[C@@H](CC(C)C)C(=O)N[C@@H](CCC(=O)O)C(=O)N[C@@H](C)C(=O)N[C@@H](C)C(=O)N[C@@H](C)C(=O)N[C@@H](CCCCN)C(=O)N[C@@H](CCCCNC(=O)CCC(=O)OC1CCC2(C)C(=CCC3C2CCC2(C)C(C(C)CCCC(C)C)CCC32)C1)C(N)=O)[C@@H](C)CC)[C@@H](C)CC (stereo partly shown) [Compound 39] (Ac-WDEFDASISQNEKINQSLEEIRKSDELLHNNALEAAAKK(X1)-NH2) | > 100 | 0.113
CC[C@H](C)[C@H](NC(=O)[C@H](CCCNC(=N)N)NC(=O)[C@H](CCCNC(=N)N)NC(=O)[C@H](CCCNC(=N)N)NC(=O)[C@H](CC(N)=O)NC(=O)[C@@H](NC(=O)[C@H](CCC(=O)O)NC(=O)[C@H](Cc1ccccc1)NC(C)=O)C(C)C)C(=O)N[C@@H](CCC(=O)O)C(=O)N[C@@H](CCC(N)=O)C(=O)N[C@@H](CO)C(=O)N[C@@H](CC(C)C)C(=O)N[C@@H](CCC(=O)O)C(=O)N[C@@H](CCCCN)C(=O)N[C@@H](CO)C(=O)N[C@@H](CC(C)C)C(=O)N[C@@H](CCC(=O)O)C(=O)N[C@@H](CO)C(=O)N[C@@H](CC(C)C)C(=O)N[C@@H](CCC(=O)O)C(=O)N[C@@H](CCC(=O)O)C(=O)N[C@@H](CCC(=O)O)C(=O)N[C@@H](CCC(=O)O)C(=O)N[C@@H](Cc1c[nH]cn1)C(=O)N[C@@H](CO)C(=O)N[C@@H](CC(=O)O)C(=O)N[C@@H](CCCCN)C(=O)N[C@@H](CCCCN)C(=O)N[C@@H](CC(C)C)C(=O)N[C@@H](Cc1c[nH]cn1)C(=O)N[C@@H](CC(N)=O)C(=O)N[C@@H](CCC(=O)O)C(=O)N[C@@H](CC(C)C)C(=O)N[C@@H](Cc1c[nH]cn1)C(N)=O [Compound 46] (Ac-FEVNRRRIEQSLEKSLESLEEEEHSDKKLHNELH-NH2) | > 8 | > 8
